The values that follow come from article PMC12357248, “Selectively targeting BCL6 using a small-molecule inhibitor is a potential therapeutic strategy for glioblastoma” (Genes & Diseases, 2025).

One test deals with BCL6. The test can be described thus: Western blotting of BCL6 after TMZ treatment. The test is classed as cell-based. Conditions: U251, SF268, U87-MG, 24 h. The method, then:
Cell lines were treated with drugs, and tumor tissues were collected in a Ripa lysis buffer. Western blotting was performed using antibodies against BCL6 (14895S, Cell Signaling Technology), PARP (poly(ADP-Ribose) polymerase; 9532S, Cell Signaling Technology), γH2AX (phosphorylated form of H2A.X variant histone; 9718S, Cell Signaling Technology), phospho-ERK (4370S, Cell Signaling Technology), ERK (extracellular signal-regulated kinase; 4695T, Cell Signaling Technology), phospho-AKT (4060S, Cell Signaling Technology), AKT (9272S, Cell Signaling Technology), GAPDH (AB0036, ABWAYS), BCL2 (T40056F, ABWAYS), c-MYC (CY5150, ABWAYS).
(In western blotting, separated proteins are transferred to a membrane and probed.)

In another test the test system is U87-MG-Luc xenograft. Put plainly: Intracranial (orthotopic) U87-MG-Luc GBM xenograft. The class given is in vivo, BALB/c nude mice. Conditions: TMZ 5 mg/kg, YK01 12.5 mg/kg, intraperitoneally. An excerpt: An orthotopic U87-MG GBM-bearing mouse model of BALB/c nude mice was created. Five microlitres of U87-MG-Luc cells (1 × 10^5 cells) were implanted into the left striatum of anaesthetized animals. The burr hole was then filled with bone wax, and the scalp was closed with tissue glue. To assess the growth of the glioma, bioluminescence imaging (in vivo imaging system, Lumina III) was used to determine its size. […]

Test [1] has as its target BCL6^BTB/SMRT interaction (Homo sapiens, UniProt P41182). Put plainly: HTRF assay, BCL6-BTB/SMRT interaction. The test is classed as binding. In general terms: TR-FRET usually uses a lanthanide donor and a delayed reading to cut background.
The next test has as its target T1, BCL6^BTB (Homo sapiens, UniProt P41182).
T1 construct: expressed in transfected cells
The test can be described thus: Luciferase reporter assay, BCL6-BTB-mediated transcriptional repression. The test is classed as cell-based. Conditions: even at 20 μM. (In general: Reporter assays use an easily measured gene product as a stand-in for the process of interest.)

In another test the target is T2, eGFP-BCL6 (FL) (Homo sapiens, UniProt P41182).
T2 construct: a gene encoding the full-length BCL6 protein fused to eGFP; expressed in transfected cells; host or cells: HEK293T
Put plainly: BCL6-eGFP-mCherry stability reporter in HEK293T cells. The test is classed as cell-based. Particulars: 1 μM.

In another test the test system is SF268. Put plainly: MTS cell viability assay. The test is classed as cell-based. Particulars: Homo sapiens, SF-268. The method, then: (§1) Cell viability was tested by MTS assay (Promega, USA). 8000 cells were seeded in a 96-well plate and then treated with compounds for 72 h, followed by the addition of 20 μL of MTS and incubation at 37 °C for 2–3 h. Absorbance at 490 nm is measured with the SpectraMax 190 plate reader, and the IC50 value is calculated by GraphPad Prism. In the drug combination assay, combination index (CI) values were calculated using CalcuSyn software. A CI value greater than 1 has a drug antagonistic effect, and a value less than 1 has a synergistic effect.

The test system of the next test is U87-MG. Put plainly: MTS cell viability assay. Particulars: Homo sapiens, U-87 MG. The test is classed as cell-based. As to the method:
as §1

The test system of a further test is U251. Put plainly: MTS cell viability assay. The test is classed as cell-based. Particulars: Homo sapiens, U-251. The method, then:
as §1

`Cn1nnc2c(C(N)=O)ncn2c1=O` [TMZ, temozolomide]: the BCL6 expression result in the test on BCL6 is recorded as “up-regulated”. Besides, the “U87-MG-luci xenograft growth (bioluminescence)” value with U87-MG-Luc xenograft is given as “improved”.
Turning to `CNC(=O)COc1cc2cc(Nc3nc(N4C[C@H](C)C[C@H](C)C4)ncc3Cl)ccc2n(C)c1=O` [BI3802], the IC50 (in general, the concentration at which inhibition is half-maximal) in test [1] amounted to 0.0027 µM. Further, on BCL6^BTB, the “effect on BCL6^BTB” value was “little effect”. The “effect on eGFP-BCL6 (FL) reporter” value at eGFP-BCL6 (FL) is recorded as “degradation”.
Regarding `O=C(O)CCN1C(=O)/C(=C2/C(=O)Nc3ccc(Cl)cc32)SC1=S` [FX1], the 50% inhibitory concentration (IC50) was found to be 43.9 ± 1.23 µM with SF268, 32 ± 1.12 µM in the test on U87-MG and 37.4 ± 1.41 µM in the test with U251.
